{"source": "patent US6670364B2", "about": "“Antagonists of MCP-1 function and methods of use thereof” (Telik, Inc., priority 2001, dated 2003)", "key": {"ICR male mice": {"test_system": "ICR male mice", "experiment": "Thioglycollate-induced inflammation model (Example 17)", "assay_type": "in vivo, mouse", "settings": "peritoneal cavity 72 h after thioglycollate; 5 mg/kg, subcutaneous", "procedure": "3% Brewer's thioglycollate broth (Difco, Detroit, Mich.) was injected into the peritoneal cavity of ICR male mice, followed by subcutaneous administration of the test compound. The same dose of test compound was again administered immediately after the broth injection and 3 h later. After 72 h, the number of total elicited cells and MOMA2-positive cells in the peritoneal cavity was analyzed using an EPICS XL Beckman Coulter."}, "male Wistar rats [1]": {"test_system": "male Wistar rats", "experiment": "Anti-Thy-1 antibody-induced nephritis model, s.c. (Example 19)", "assay_type": "in vivo", "settings": "rat; for ED-1 positive cells/glomeruli (mean ± SE): day 7", "procedure": "The efficacy of the compounds of the present invention was also evaluated in an animal model of nephritis. This model very closely simulates the conditions found in human mesangial proliferative glomerulonephritis.\nAnti-Thy-1 nephritis was induced by intravenous injection of anti-Thy-1-antibody to male Wistar rats. The test compound was subcutaneously administered 2 h before, immediately after, and 5 h after the anti-Thy-1 antibody treatment, and then twice a day for the following 2 days. Anti-MCP-1 antibody was intraperitoneally injected once a day for 3 days. Seven days after the anti-Thy-1 antibody treatment, the rats were sacrificed. The kidneys were perfused with 10% formaldehyde in PBS, surgically removed, and immersed in 10% formaldehyde. The kidneys were then embedded in paraffin for glomerular histopathology or in OCT compound (Miles Inc., Elkhart, Ind.) in liquid nitrogen after immersion in 30% sucrose overnight. Immunohistochemical staining was performed with a mouse anti-rat ED-1 monoclonal antibody. Briefly, 5 μm renal sections were prepared and endogenous peroxidase blocked with 0.3% hydrogen peroxide. The sections were then blocked with Protein Block (DAKO, Japan) and stained with anti-ED-1 antibody for 45 min. The ED-1 antigen was visualized by peroxidase-labeled anti-mouse IgG and diaminobenzidine. The amount of urinary protein was determined with the DC protein assay kit (Bio-Rad, Hercules, Calif.). The effect of a representative test compound on the level of urinary protein excretion and the infiltration of ED-1 positive cells into the glomeruli is shown in Table 10."}, "apoE-deficient mice": {"test_system": "apoE-deficient mice", "experiment": "Apolipoprotein E-deficient mouse model of atherosclerosis (Example 20)", "assay_type": "in vivo", "procedure": "Apolipoprotein E (apoE) is a component of several plasma lipoproteins, including chylomicrons, VLDL, and HDL. Receptor-mediated catabolism of these lipoprotein particles is mediated through the interaction of apoE with the LDL receptor (LDLR) or with LDLR-related protein (LRP). […] The efficacy of the compounds of the present invention was also evaluated using this animal model.\nMale, 4 week-old apoE-deficient mice were fed on high-fat diet (15% fat, 1.25% cholesterol). The test compound was administered as food admixture for 8 weeks. At 12 week-old, the mice were fasted for 4 hours and then sacrificed under ether anesthesia. Blood was collected in the presence of heparin, and the hearts were perfused in situ with PBS (pH 7.4), followed by 4% paraformaldehyde for 5 min.\nTo determine cross-sectional lesion areas, the hearts were embedded in OCT compound and sectioned at 10 μm using cryostat. The sections were stained with oil red O. Each section of the aortic valve was evaluated for oil red O staining by capturing images directly from a RGB camera attached to a light microscope; image analysis was performed with the IPAP-WIN software (Sumika Tekuno, Japan). Five sections were examined for each animal, and the sum of the lesion areas was calculated and expressed as the percent of the total cross-sectional wall area. Total cholesterol was determined with a Determiner assay kit (Kyowa medex, Japan)."}, "hMCP-1 [2]": {"molecular_target": "T1, hMCP-1 (Homo sapiens, UniProt P13500)", "experiment": "Inhibition of MCP-1-induced chemotaxis (96-well chamber, Example 16)", "assay_type": "cell-based", "settings": "THP-1 cells, 12.5 nM hMCP-1, 2 h, 96-well microchemotaxis chamber", "procedure": "A 96-well microchemotaxis chamber with a 5 μm-pore size, PVP-coated polycarbonate filter membrane (Neuro Probe Inc., Cabin John, Md.) was used for testing. Compounds were prepared as 10 mM stock solution in DMSO. THP-1 cells (2×10^6 cells/mL) were labeled with 5 μM Calcein AM containing 0.1% F127 (Molecular Probe, Eugene, Oreg.) at 37° C. for 30 min, and then pretreated with compound at room temperature for an additional 30 min. […] The filter membrane was placed over the lower chamber, followed by a silicon gasket and the upper chamber. The pretreated THP-1 cells (4×10^5 cells/50 μL of RPMI1640 medium per well) were added to the upper chamber and incubated in 5% CO2 at 37° C. for 2 h. The migrated cells were determined with a fluorescent plate reader (LJL BioSystems, Sunnyvale, Calif.)."}, "male Lewis rats": {"test_system": "male Lewis rats", "experiment": "Adjuvant arthritis model in rat (Example 22)", "assay_type": "in vivo", "settings": "10 mg/kg p.o. once a day", "procedure": "Adjuvant arthritis was induced in male Lewis rats as follows. Complete Freund's adjuvant (CFA) was mixed with PBS and 0.1 ml of the resulting emulsion was injected subcutaneously into the foot pad of the right hind paw (day=0). The test compound was administered p.o. at day 0 and then once a day for 26 days. Paw swelling was measured by the increased thickness of the foot pad."}, "male Wistar rats [3]": {"test_system": "male Wistar rats", "experiment": "Anti-Thy-1 antibody induced nephritis model, per os (Example 26)", "assay_type": "in vivo, rat", "procedure": "Anti-Thy-1 nephritis was induced by intravenous injection of anti-Thy-1-antibody to male Wistar rats. The test compound was per os administered 2 h before, immediately after, and 5 h after the anti-Thy-1 antibody treatment, and then twice a day for the following 2 days. Seven days after the anti-Thy-1 antibody treatment, the rats were sacrificed. The amount of urinary protein was determined with the DC protein assay kit (Bio-Rad, Hercules, Calif.)."}, "hMCP-1 [4]": {"molecular_target": "T1, hMCP-1", "experiment": "Inhibition of MCP-1-induced chemotaxis (48-well chamber, Example 21)", "assay_type": "cell-based", "set-up": "purchased PeproTech", "settings": "THP-1 cells, 2.5 nM hMCP-1, 48-well chamber, 2 hr", "procedure": "A 48-well microchemotaxis chamber with a 5 μm-pore size, PVP-coated polycarbonate filter membrane (Neuro Probe Inc., Cabin John, Md.) was used for testing. Compounds were prepared as 10 mM stock solution in DMSO. THP-1 cells were washed with RPMI 1640 medium supplemented with 0.5% BSA and 25 mM HEPES, pH 7.4, and suspended at a density of 4×10^6 cells/mL in the same medium. A 150 μL aliquot of this suspension was treated with an equal volume of test compound solution and the mixture incubated at 37° C. for 15 min. The lower chamber was loaded with 26 μL of a 2.5 nM solution of hMCP-1 (PeproTech) in medium. The filter membrane was placed over the lower chamber, followed by a silicon rubber gasket and the upper chamber. A 50 μL aliquot of the THP-1 cell suspension containing the test compound was added to the upper chamber and the assembly incubated in a 5% CO2 atmosphere at 37+ C. for 2 hr. The chamber was then disassembled and the cells remaining on the upper surface of the filter were scrapped off with a rubber scrapper. The filter was fixed with methanol, stained with Diff-Quik solution, and mounted on a slide glass. The cells that had migrated across the filter onto the lower surface were then counted by microscopic observation."}, "female Lewis rats [5]": {"test_system": "female Lewis rats", "experiment": "Collagen-induced arthritis model in rat, i.p. (Example 23)", "assay_type": "in vivo", "procedure": "(§1) Collagen-induced arthritis was induced in female Lewis rats as follows. Rats were injected subcutaneously with the emulsion of bovine collagen type 11 (3.3 mg/kg at day 0 and 1.67 mg/kg at day 7) and complete Freund's adjuvant (CFA) at the base of the tail at day 0 and immunized additionally at day 7. The test compounds were administered i.p. at day 0 and then once a day for 18 days or p.o. (methotrexate) at day 0 and then 3 times a week until day 18. Paw swelling was measured by the increased volume of the legs using a plethysmometer."}, "female Lewis rats [6]": {"test_system": "female Lewis rats", "experiment": "Collagen-induced arthritis model in rat, p.o. (Example 24)", "assay_type": "in vivo", "settings": "1 mg/kg p.o. 3 times a week until day 21 (positive control)", "procedure": "as §1, with “p.o.” for “i.p.”, “twice” for “once”, “21” for “18”, “or” for “or p.o. (methotrexate) at day 0 and then”, “21 was also administered p.o. from day 13 to day 21 in another group.” for “18.”"}}, "data": [{"smiles": "Cc1nn(C)c2ncc(C(=O)NC(=O)Nc3ccc(F)c(C(F)(F)F)c3)cc12", "note": "[Compound 11, (1,3-Dimethylpyrazolo[5,4-b]pyridin-5-yl)-N-({[4-fluoro-3-(trifluoromethyl)phenyl]amino}carbonyl)carboxamide]", "values": [{"measurement": "MOMA2-positive Cells (× 10^6)", "setting": "ICR male mice", "result": "14.3 ± 1.2 × 10^6"}, {"measurement": "Total Cells (× 10^6)", "setting": "ICR male mice", "result": "19.7 ± 1.6 × 10^6"}, {"measurement": "Urinary Protein", "setting": "male Wistar rats [1]; 0.1 mg/kg s.c.", "result": "182.2 ± 28.0", "unit": "mg/day"}, {"measurement": "ED-1 positive cells/glomeruli (mean ± SE)", "setting": "male Wistar rats [1]; 0.1 mg/kg s.c.", "result": "5.3 ± 0.7", "unit": "cells/glomeruli"}, {"measurement": "Urinary Protein", "setting": "male Wistar rats [1]; 2 mg/kg s.c.", "result": "117.4 ± 26.3", "unit": "mg/day"}, {"measurement": "ED-1 positive cells/glomeruli (mean ± SE)", "setting": "male Wistar rats [1]; 2 mg/kg s.c.", "result": "2.3 ± 0.6", "unit": "cells/glomeruli"}, {"measurement": "% Atherosclerotic Lesion (mean ± SD)", "setting": "apoE-deficient mice; 10 mg/kg as food admixture for 8 weeks, high-fat diet, aortic valve sections, oil red O", "result": "18.72 ± 5.27", "unit": "%"}, {"measurement": "body weight vs control", "setting": "apoE-deficient mice; apoE-deficient mice, 8 weeks treatment, data not shown", "result": "no significant differences"}, {"measurement": "percent of atherosclerotic lesion area (in words)", "setting": "apoE-deficient mice; vs control group, statistically significant", "result": "reduced"}]}, {"smiles": "Cc1nn(C)c2ncc(C(=O)NC(=O)Nc3ccc(Cl)c(Cl)c3)c(Cl)c12", "note": "[Compound 37, N-{[(3,4-dichlorophenyl)amino]carbonyl}(4-chloro-1,3-Dimethylpyrazolo[5,4-b]pyridin-5-yl)carboxamide]", "values": [{"measurement": "IC50", "setting": "hMCP-1 [2]", "result": 12.7, "unit": "µM"}]}, {"smiles": "Cc1nn(C)c2ncc(C(=O)NC(=O)Nc3ccc(F)c(C(F)(F)F)c3)c(N3CCN(C)CC3)c12.Cl", "note": "[Compound 85, [1,3-Dimethyl-4-(4-methylpiperazinyl)pyrazolo[5,4-b]pyridin-5-yl]-N-({[4-fluoro-3-(trifluoromethyl)phenyl]amino}carbonyl)carboxamide hydrochloride]", "values": [{"measurement": "Percent Swelling (foot pad)", "setting": "male Lewis rats; day 11 after immunization", "result": 39, "unit": "%"}, {"measurement": "Percent Swelling (foot pad)", "setting": "male Lewis rats; day 14 after immunization", "result": 40, "unit": "%"}, {"measurement": "Percent Swelling (foot pad)", "setting": "male Lewis rats; day 17 after immunization", "result": 34, "unit": "%"}, {"measurement": "Percent Swelling (foot pad)", "setting": "male Lewis rats; day 21 after immunization", "result": 30, "unit": "%"}, {"measurement": "Percent Swelling (foot pad)", "setting": "male Lewis rats; day 22 after immunization", "result": 26, "unit": "%"}, {"measurement": "Percent Swelling (foot pad)", "setting": "male Lewis rats; day 26 after immunization", "result": 27, "unit": "%"}, {"measurement": "Urinary Protein (mg/mg creatinine)", "setting": "male Wistar rats [3]; 0.1 mg/kg per os", "result": "33.4 ± 5.1", "unit": "mg/mg creatinine"}, {"measurement": "Urinary Protein (mg/mg creatinine)", "setting": "male Wistar rats [3]; 1 mg/kg per os", "result": "32.4 ± 5.9", "unit": "mg/mg creatinine"}, {"measurement": "Urinary Protein (mg/mg creatinine)", "setting": "male Wistar rats [3]; 10 mg/kg per os", "result": "23.5 ± 7.2", "unit": "mg/mg creatinine"}, {"measurement": "IC50", "setting": "hMCP-1 [4]", "result": 0.09, "unit": "µM"}]}, {"smiles": "Cc1nn(C)c2ncc(C(=O)NC(=O)Nc3ccc(C(=O)N4CCOCC4)c(Cl)c3)cc12", "note": "[Compound 141]", "values": [{"measurement": "Percent Swelling day 18", "setting": "female Lewis rats [5]; 10 mg/kg i.p. once a day for 18 days", "result": "12.3 ± 1.5", "unit": "%"}]}, {"smiles": "CN(Cc1cnc2nc(N)nc(N)c2n1)c1ccc(C(=O)N[C@@H](CCC(=O)O)C(=O)O)cc1", "note": "[methotrexate, reference compound]", "values": [{"measurement": "Percent Swelling day 18", "setting": "female Lewis rats [5]; 1 mg/kg p.o. 3 times a week until day 18", "result": "8.9 ± 1.2", "unit": "%"}, {"measurement": "Percent Swelling day 14", "setting": "female Lewis rats [6]", "result": "−0.4 ± 1.1", "unit": "%"}, {"measurement": "Percent Swelling day 21", "setting": "female Lewis rats [6]", "result": "−0.7 ± 1.0", "unit": "%"}]}]}
